Entries after “also recorded” stand apart in the source; their conditions may differ.
What was measured:
[1] = Mechanical stability of the emulsion with tonicity adjusters; assay type: physicochemical; details: tonicity adjuster compared with sodium chloride
Excerpt: Glycerin USP is used in the formulation to adjust the tonicity of the emulsion. For intravenous infusion, it is important that the tonicity of the emulsion be in the same physiological range as blood tonicity. Glycerin was chosen because it has a long history of use in parenteral emulsions and because it is not an ionizable species that could contribute to coalescence of the emulsion particles by disruption of the charged layer (zeta potential) surrounding the particles.

[2] = Physical properties of perfluoro(tert-butylcyclohexane); assay type: physicochemical
Excerpt: Physical properties of perfluoro(tert-butylcyclohexane) are as follows: […]

[3] = tested on: rats and monkeys; experiment: Single-dose GLP toxicity studies, absorption and persistence; assay type: in vivo
Excerpt: (§1) Perfluoro(tert-butylcyclohexane) at both 60% and 20% w/v concentrations has been tested in controlled, single-dose Good Laboratory Practice (GLP) toxicity studies in rats and monkeys. […] Nevertheless, perfluoro(tert-butylcyclohexane) represents a better balance between persistence and the tendency to produce hyperinflated, non-collapsible lungs than what is seen with PFOB and perfluorodecalin.

[4] = Solubility of FtBu in water and solvents; assay type: physicochemical; details: room temperature
Excerpt: FtBu is most soluble in halogenated solvents such as isoflurane. Therefore, FtBu needs to be formulated as an aqueous emulsion for intravenous administration.

[5] = Gas carrying capacity (oxygen, CO2); assay type: physicochemical; details: at body temperature
Method: Perfluoro(tert-butylcyclohexane) can carry about 43 mL of oxygen per 100 mL of PFC, and 196 mL of CO2 per 100 mL of PFC at body temperature.
FtBu can dissolve and release large amounts of gases, including the blood gases oxygen and carbon dioxide. […] As such, no sinusoidal release curve of oxygen is encountered. The transport and release of oxygen and other gases by FtBu is a simple passive process, the quantity of gas dissolved is linearly related to its partial pressure, essentially following Henry's Law.
In the body the PFC emulsion is capable of uploading and unloading oxygen and CO2 more efficiently than blood, (at a FtBu concentration of 60% w/v, Oxycyte® can dissolve 3-4 times the amount of oxygen than human hemoglobin can off-load under normal physiological conditions) and this process is concentration-gradient mediated (Henry's Law). Because the median size of the PFC droplets is approximately 40-50 times smaller than an erythrocyte, Oxycyte® is able to oxygenate tissues with narrowed capillaries, as occurs in brain contusions. After about 10 hours, half of an intravenous dose of 3 mL/kg remains in the circulation. PFCs are eliminated from the blood when macrophages scavenge the lipid particles. This is quite similar to how Intralipid® is transported from the blood stream. PFCs are deposited in the liver and spleen. […]

[6] = tested on: skin tissue; experiment: Measuring oxygen tension in tissue with fluorescent marker (Example 3); assay type: in vivo; details: skin area treated with PFC
Method: A material which binds oxygen (fluorescent marker) is injected into skin tissue. The combination is fluorescent and the more oxygen that is present, the stronger the fluorescent signal. (representing the oxygen tension in the tissue). First it is determined that fluorescence chemistry is unaffected by the PFCs and poloxamers. Then as a control, the fluorescent marker is injected into the skin, and oxygen tension is obtained. Finally, the same area is treated with a PFC, PFC emulsion or a PFC gel and oxygen tension is again obtained.

[7] = tested on: monkeys; experiment: Single-dose GLP toxicity study, pulmonary hyperinflation; assay type: in vivo; details: 60% and 20% w/v, compared with PFOB
Excerpt: as §1

Row | SMILES | mechanical stability of the emulsion [1] | Density [2] [g/mL] | Kinematic Viscosity [2] [cP] | Vapor Pressure @ 25° C. ([2]; 25° C.) [mmHg] | Vapor Pressure @ 37° C. ([2]; 37° C.) [mmHg] | persistence in liver and spleen (RES half-life) ([3]; compared with PFOB) | absorption in the body ([3]; single dose) | solubility in 2,2,4-trimethylpentane(isooctane) [4] | solubility in halogenated solvents such as isoflurane [4] | solubility in water [4] | CO2 carried [5] | oxygen carried [5] | local oxygen tension in the tissue [6] | degree of pulmonary hyperinflation [7]
1 | OCC(O)CO [glycerin, Glycerin] | superior to sodium chloride |  |  |  |  |  |  |  |  |  |  |  |  | 
2 | OC[C@@H](O)[C@@H](O)[C@H](O)[C@H](O)CO [mannitol] | superior to sodium chloride |  |  |  |  |  |  |  |  |  |  |  |  | 
3 | FC(F)(F)C(C(F)(F)F)(C(F)(F)F)C1(F)C(F)(F)C(F)(F)C(F)(F)C(F)(F)C1(F)F [perfluoro(tert-butylcyclohexane), 1-(1,1-bis(trifluoromethyl)-2,2,2-trifluoroethyl)-1,2,2,3,3,4,4,5,5,6,6-undecafluorocyclohexane] |  | 1.97 | 5.378 | 3.8 | 4.4 | somewhat longer than what has been reported for PFOB; also recorded: somewhat longer than that of the benchmark perfluorocarbon, PFOB | generally comparable to what has been reported for other PFCs | only minimal solubility | most soluble | virtually insoluble in water | ~196 mL of CO2 per 100 mL of PFC | about 43 mL of oxygen per 100 mL of PFC | substantially increases local oxygen tension | significantly less than that seen in monkeys treated with PFOB; also recorded: correspondingly lesser propensity to cause pulmonary hyperinflation
